Experimental data taken from patent US20210317140A1, “Heterocyclic Compounds and Methods of Use” (MEDIVATION TECHNOLOGIES, INC, priority 2013, published 2021).
Several values for one entry are separate records, joined by “and”; a condition that tells them apart may be missing. Identical values can stand only once.

Assays:
[1] = biological target: T1, BTK (Homo sapiens, UniProt Q06187); assay: BTK kinase assay (HotSpot, 33P ATP); assay type: biochemical; conditions: for BTK @ 0.1 μM (% Inh): 0.1 μM compound; for BTK @ 0.1 μM (% Inh) / BTK @ 1 μM (% Inh) / BTK @ 0.01 μM (% Inh): 10 μM ATP; for BTK @ 1 μM (% Inh): 1 μM compound; for BTK @ 0.01 μM (% Inh): 0.01 μM compound; for IC50: 10 dose IC50, 10 μM ATP
T1 construct: purchased Reaction Biology Corporation
T1 sequence (Q06187 whole entry): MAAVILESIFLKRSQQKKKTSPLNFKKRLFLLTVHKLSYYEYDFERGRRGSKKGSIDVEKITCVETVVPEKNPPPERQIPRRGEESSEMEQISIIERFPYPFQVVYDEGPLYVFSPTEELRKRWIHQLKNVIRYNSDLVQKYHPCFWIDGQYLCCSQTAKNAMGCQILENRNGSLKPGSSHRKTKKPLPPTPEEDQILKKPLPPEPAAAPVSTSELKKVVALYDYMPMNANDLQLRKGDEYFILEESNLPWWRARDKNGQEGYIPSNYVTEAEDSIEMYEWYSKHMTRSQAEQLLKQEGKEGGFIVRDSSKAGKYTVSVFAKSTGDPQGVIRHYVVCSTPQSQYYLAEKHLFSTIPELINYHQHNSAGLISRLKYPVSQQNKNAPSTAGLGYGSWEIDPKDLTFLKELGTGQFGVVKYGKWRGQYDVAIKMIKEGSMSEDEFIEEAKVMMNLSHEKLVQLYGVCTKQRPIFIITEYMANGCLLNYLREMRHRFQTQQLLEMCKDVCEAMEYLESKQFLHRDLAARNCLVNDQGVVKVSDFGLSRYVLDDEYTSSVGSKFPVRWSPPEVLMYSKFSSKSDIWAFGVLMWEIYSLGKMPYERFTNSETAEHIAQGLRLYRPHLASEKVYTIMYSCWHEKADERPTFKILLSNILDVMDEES
Method: (§1) Compounds of the invention were profiled in a 10 dose IC50 panel against BTK and PI3Kδ, both provided by Reaction Biology Corporation.
BTK assay: In vitro profiling protein kinases was performed using the “HotSpot” assay platform. Briefly, specific kinase/substrate pairs along with required cofactors were prepared in reaction buffer. Compounds were prepared as 10 mM stock solutions in DMSO. Compounds were delivered into the reaction, followed 15-20 minutes later by addition of a mixture of ATP (Sigma, St. Louis Mo.) and ^33P ATP (Perkin Elmer, Waltham Mass.) to a final concentration of 10 μM. […] IC50 values and curve fits were obtained using Prism (GraphPad Software). Buffer Conditions: 20 mM Hepes (pH 7.5), 10 mM MgCl2, 1 mM EGTA, 0.02% Brij35, 0.02 mg/mL BSA, 0.1 mM Na3VO4, 2 mM DTT, 1% DMSO.

[2] = biological target: T2, PI3Kδ (Homo sapiens, UniProt O00329); assay: PI3Kδ kinase assay (HTRF, PIP3 detection); assay type: biochemical; conditions: for PI3Kδ @ 0.1 μM (% Inh): 0.1 μM compound; for PI3Kδ @ 0.1 μM (% Inh) / PI3Kδ @ 1 μM (% Inh) / PI3Kδ @ 0.01 μM (% Inh): 10 μM ATP; for PI3Kδ @ 1 μM (% Inh): 1 μM compound; for PI3Kδ @ 0.01 μM (% Inh): 0.01 μM compound; for IC50: 10 dose IC50, 10 μM ATP
T2 construct: purchased Reaction Biology Corporation
T2 sequence (O00329 whole entry): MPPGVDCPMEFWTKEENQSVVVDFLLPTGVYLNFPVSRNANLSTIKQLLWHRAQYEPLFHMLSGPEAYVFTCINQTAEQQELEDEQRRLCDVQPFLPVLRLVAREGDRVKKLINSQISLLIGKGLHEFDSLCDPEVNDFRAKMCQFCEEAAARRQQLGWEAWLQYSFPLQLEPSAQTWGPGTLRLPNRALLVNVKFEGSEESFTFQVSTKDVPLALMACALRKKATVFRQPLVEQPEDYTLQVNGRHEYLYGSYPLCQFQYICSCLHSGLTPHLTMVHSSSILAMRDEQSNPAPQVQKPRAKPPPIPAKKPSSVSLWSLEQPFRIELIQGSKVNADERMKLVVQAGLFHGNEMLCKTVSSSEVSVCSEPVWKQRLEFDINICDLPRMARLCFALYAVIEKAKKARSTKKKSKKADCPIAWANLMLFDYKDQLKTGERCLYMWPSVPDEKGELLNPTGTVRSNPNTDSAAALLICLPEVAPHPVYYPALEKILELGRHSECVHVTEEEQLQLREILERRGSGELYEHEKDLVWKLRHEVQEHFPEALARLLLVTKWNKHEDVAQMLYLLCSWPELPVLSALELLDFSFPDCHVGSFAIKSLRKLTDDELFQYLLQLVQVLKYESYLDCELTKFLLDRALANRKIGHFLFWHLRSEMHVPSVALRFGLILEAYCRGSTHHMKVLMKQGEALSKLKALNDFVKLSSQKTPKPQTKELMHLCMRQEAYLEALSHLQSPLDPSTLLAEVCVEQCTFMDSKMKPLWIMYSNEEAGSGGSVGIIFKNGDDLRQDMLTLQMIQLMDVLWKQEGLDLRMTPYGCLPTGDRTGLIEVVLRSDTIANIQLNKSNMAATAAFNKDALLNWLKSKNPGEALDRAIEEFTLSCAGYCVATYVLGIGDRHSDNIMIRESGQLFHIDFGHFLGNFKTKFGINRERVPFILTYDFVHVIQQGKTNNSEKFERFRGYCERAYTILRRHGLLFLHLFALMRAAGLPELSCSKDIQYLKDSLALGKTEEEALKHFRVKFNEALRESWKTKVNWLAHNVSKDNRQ
T2 sequence (P27986 whole entry partner): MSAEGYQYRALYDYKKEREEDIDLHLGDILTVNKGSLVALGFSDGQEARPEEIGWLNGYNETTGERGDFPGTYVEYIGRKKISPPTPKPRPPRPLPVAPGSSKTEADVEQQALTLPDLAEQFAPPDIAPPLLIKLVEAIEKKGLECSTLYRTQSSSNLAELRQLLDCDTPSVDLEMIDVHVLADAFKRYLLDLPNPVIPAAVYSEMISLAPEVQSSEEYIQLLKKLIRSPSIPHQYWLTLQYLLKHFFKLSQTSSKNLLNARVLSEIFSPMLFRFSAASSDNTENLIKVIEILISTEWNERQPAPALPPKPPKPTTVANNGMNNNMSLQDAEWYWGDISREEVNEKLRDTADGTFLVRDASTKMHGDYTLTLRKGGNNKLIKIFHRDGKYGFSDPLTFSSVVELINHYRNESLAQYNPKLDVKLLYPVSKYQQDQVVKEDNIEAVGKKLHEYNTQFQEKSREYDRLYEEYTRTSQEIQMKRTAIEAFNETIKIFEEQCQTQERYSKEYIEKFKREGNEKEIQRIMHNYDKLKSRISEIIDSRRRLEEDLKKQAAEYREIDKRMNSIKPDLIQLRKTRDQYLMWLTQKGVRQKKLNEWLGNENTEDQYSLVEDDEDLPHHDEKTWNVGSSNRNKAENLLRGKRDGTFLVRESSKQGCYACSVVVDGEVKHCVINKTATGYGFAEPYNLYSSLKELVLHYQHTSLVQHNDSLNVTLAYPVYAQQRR
From the text: as §1
PI3Kδ assay: The PIP3 product is detected by displacement of biotin-PIP3 from an energy transfer complex consisting of Europium labeled anti-GST monoclonal antibody, a GST-tagged pleckstrin homology (PH) domain, biotinylated PIP3 and Streptavidin-Allophycocyanin (APC). […] The PIP3 product formed by PI 3-Kinase(h) activity displaces biotin-PIP3 from the complex resulting in a loss of energy transfer and thus a decrease in signal. This is a 3-step reaction: First, the kinase reaction with PIP2 substrate is carried out in the presence of ATP (10 μM), and the reaction is quenched with stop Solution, and then finally detect by adding Detection Mixture followed by incubation (10 min). Reaction procedure: 1) Prepare substrate in freshly prepared Reaction Buffer. 2) Deliver kinase into the substrate solution and gently mix. 3) Deliver compounds in 100% DMSO (1 μM) into the kinase reaction mixture by Acoustic technology (Echo550; nanoliter range), incubate for 10 min at RT. 4) Deliver ATP into the reaction mixture to initiate the reaction. 5) Incubate for 30 min at 30° C. 6) Quench the reaction with Stop Solution. 7) Add Detection Mixture, and incubate for overnight. […] The emission ratio is converted into μM PIP3 production based on PIP3 standard curves. The nonlinear regression to obtain the standard curve and IC50 values are performed using Graphpad Prism software. Assay Buffer: HEPES 50 mM (pH7.0), NaN3 0.02%, BSA 0.01%, Orthovanadate 0.1 mM, 1% DMSO. Detection buffer: HEPES 10 mM (pH7.0), BSA 0.02%, KF 0.16 M, EDTA 4 mM. Substrate: 10 μM PIP2 substrate (PI(4,5)P2).

BTK @ 0.1 μM (% Inh) [1]	BTK @ 1 μM (% Inh) [1]	PI3Kδ @ 0.1 μM (% Inh) [2]	PI3Kδ @ 1 μM (% Inh) [2]	BTK @ 0.01 μM (% Inh) [1]	PI3Kδ @ 0.01 μM (% Inh) [2]	IC50 [1]	IC50 [2]	Structure (SMILES)
5.47 % Inh	6.5 % Inh	−13.69 % Inh	13.55 % Inh	–	–	–	–	CCOc1cc(-c2nn(C3Cc4ccccc4C3)c3ncnc(N)c23)ccc1OC(F)(F)F [Compound No. 76, 1-(2,3-dihydro-1H-inden-2-yl)-3-[3-ethoxy-4-(trifluoromethoxy)phenyl]-1H-pyrazolo[3,4-d]pyrimidin-4-amine]
15.45 % Inh	–	23.11 % Inh	–	–	–	–	–	COc1ncc(-c2nn(C3CCc4ccccc4C3)c3ncnc(N)c23)cc1F (centres unmarked) [compound 23, 3-(5-fluoro-6-methoxypyridin-3-yl)-1-(1,2,3,4-tetrahydronaphthalen-2-yl)-1H-pyrazolo[3,4-d]pyrimidin-4-amine]
88.59 % Inh	–	84.33 % Inh	–	51.3 % Inh	51.74 % Inh	–	–	N#Cc1c(-c2cc(O)c(F)c(F)c2)c2c(N)ncnc2n1C1Cc2ccccc2C1 [compound 135, 4-amino-5-(3,4-difluoro-5-hydroxyphenyl)-7-(2,3-dihydro-1H-inden-2-yl)-7H-pyrrolo[2,3-d]pyrimidine-6-carbonitrile]
2.74 % Inh	5.76 % Inh	0.0 % Inh	4.07 % Inh	–	–	–	–	Nc1ncnc2c1c(/C=C/CO)nn2C1Cc2ccccc2C1 (single isomer, unassigned) [Compound No. 64, (2E)-3-[4-amino-1-(2,3-dihydro-1H-inden-2-yl)-1H-pyrazolo[3,4-d]pyrimidin-3-yl]prop-2-en-1-ol]
93.64 % Inh	–	80.15 % Inh	–	72.51 % Inh	38.49 % Inh	–	–	Nc1ncnc2c1c(-c1cc(O)c(F)c(F)c1)c(F)n2C1Cc2ccccc2C1 [compound 136, 5-[4-amino-7-(2,3-dihydro-1H-inden-2-yl)-6-fluoro-7H-pyrrolo[2,3-d]pyrimidin-5-yl]-2,3-difluorophenol]
20.21 % Inh	–	27.39 % Inh	–	–	–	–	–	Nc1ncnc2c1c(-c1ccc(Cl)nc1)nn2C1CCc2ccccc2C1 (centres unmarked) [compound 25, 3-(6-chloro-3-pyridyl)-1-tetralin-2-yl-pyrazolo[3,4-d]pyrimidin-4-amine]
57.13 % Inh	91.61 % Inh	17.28 % Inh	43.03 % Inh	–	–	–	–	COc1cc(F)cc(-c2cn(C3Cc4ccccc4C3)c3ncnc(N)c23)c1 [Compound No. 62, 7-(2,3-dihydro-1H-inden-2-yl)-5-(3-fluoro-5-methoxyphenyl)-7H-pyrrolo[2,3-d]pyrimidin-4-amine]
4.89 % Inh	–	80.15 % Inh	–	–	–	–	–	Nc1ncnc2c1c(-c1cc(O)cc(F)c1)nn2C1CCCc2ccc(F)cc21 (centres unmarked) [compound 41, 3-[4-amino-1-(7-fluoro-1,2,3,4-tetrahydronaphthalen-1-yl)-1H-pyrazolo[3,4-d]pyrimidin-3-yl]-5-fluorophenol]
27.64 % Inh	72.19 % Inh	22.41 % Inh	72.03 % Inh	–	–	840 nM	924 nM	Nc1ncnc2c1c(-c1cccc(CO)c1)nn2C1Cc2ccccc2C1 [Compound No. 54, {3-[4-amino-1-(2,3-dihydro-1H-inden-2-yl)-1H-pyrazolo[3,4-d]pyrimidin-3-yl]phenyl}methanol]
21.32 % Inh	66.77 % Inh	39.05 % Inh	79.98 % Inh	–	–	1260 nM	362 nM	COc1cc(-c2nn(C3Cc4ccccc4C3)c3ncnc(N)c23)ccn1 [Compound No. 50, 1-(2,3-dihydro-1H-inden-2-yl)-3-(2-methoxypyridin-4-yl)-1H-pyrazolo[3,4-d]pyrimidin-4-amine]
13.50 % Inh	–	11.3 % Inh	–	–	–	877 nM	1490 nM	C=CC(=O)N1CC(n2nc(-c3cnc(OC)c(F)c3)c3c(N)ncnc32)Cc2cc(C)ccc21 (centres unmarked) [compound 32, 1-(3-(4-amino-3-(5-fluoro-6-methoxypyridin-3-yl)-1H-pyrazolo[3,4-d]pyrimidin-1-yl)-6-methyl-3,4-dihydroquinolin-1 (2H)-yl)prop-2-en-1-one]
58.79 % Inh	–	22.39 % Inh	–	–	–	–	–	Nc1ncnc2c1c(-c1ccc(F)c(O)c1)nn2C1CCc2ccccc21 (centres unmarked) [compound 10, 5-(4-amino-1-indan-1-yl-pyrazolo[3,4-d]pyrimidin-3-yl)-2-fluoro-phenol]

The next lines start with the compound.

Structure (SMILES)	BTK @ 0.1 μM (% Inh) [1]	BTK @ 1 μM (% Inh) [1]	PI3Kδ @ 0.1 μM (% Inh) [2]	PI3Kδ @ 1 μM (% Inh) [2]	BTK @ 0.01 μM (% Inh) [1]	PI3Kδ @ 0.01 μM (% Inh) [2]	IC50 [1]	IC50 [2]
Nc1ncnc2c1c(-c1ccc3cc[nH]c3c1)nn2C1Cc2ccccc2C1 [Compound No. 39, 1-(2,3-dihydro-1H-inden-2-yl)-3-(1H-indol-6-yl)-1H-pyrazolo[3,4-d]pyrimidin-4-amine]	45.81 % Inh and 37.23 % Inh	87.24 % Inh	24.12 % Inh and 30.2 % Inh	67.63 % Inh	–	–	–	–
COc1ccc(-c2nn(C3CCc4ccccc43)c3ncnc(N)c23)cc1OC (centres unmarked) [compound 34, 1-(2,3-dihydro-1H-inden-1-yl)-3-(3,4-dimethoxyphenyl)-1H-pyrazolo[3,4-d]pyrimidin-4-amine]	23.12 % Inh	–	51.63 % Inh	–	–	–	–	–
N#Cc1cc(-c2nn(C3Cc4ccccc4C3)c3ncnc(N)c23)ccc1F [Compound No. 97, 5-[4-amino-1-(2,3-dihydro-1H-inden-2-yl)-1H-pyrazolo[3,4-d]pyrimidin-3-yl]-2-fluorobenzonitrile]	14.06 % Inh	–	29.59 % Inh	–	11.7 % Inh	24.66 % Inh	–	–
Nc1ncnc2c1c(-c1cc(O)cc(F)c1)nn2C1CCCc2ccccc21 (centres unmarked) [compound 11, 3-(4-amino-1-tetralin-1-yl-pyrazolo[3,4-d]pyrimidin-3-yl)-5-fluoro-phenol]	22.06 % Inh	–	45.08 % Inh	–	–	–	–	–
Nc1ncnc2c1c(-c1ccccc1CO)nn2C1Cc2ccccc2C1 [Compound No. 53, {2-[4-amino-1-(2,3-dihydro-1H-inden-2-yl)-1H-pyrazolo[3,4-d]pyrimidin-3-yl]phenyl}methanol]	30.42 % Inh	76.1 % Inh	30.15 % Inh	81.32 % Inh	–	–	575 nM	645 nM
COc1cc(-c2nn(C3Cc4ccccc4C3)c3ncnc(N)c23)cc(C(F)(F)F)c1F [Compound No. 92, 1-(2,3-dihydro-1H-inden-2-yl)-3-[4-fluoro-3-methoxy-5-(trifluoromethyl)phenyl]-1H-pyrazolo[3,4-d]pyrimidin-4-amine]	3.3 % Inh	–	9.31 % Inh	–	1.24 % Inh	11.71 % Inh	–	–
Nc1ncnc2c1c(-c1cc(O)cc(OC(F)(F)F)c1)nn2C1Cc2ccccc2C1 [Compound No. 72, 3-[4-amino-1-(2,3-dihydro-1H-inden-2-yl)-1H-pyrazolo[3,4-d]pyrimidin-3-yl]-5-(trifluoromethoxy)phenol]	6.81 % Inh	7.63 % Inh	55.46 % Inh	85.89 % Inh	–	–	–	–
COc1ccc(-c2nn(C3Cc4ccccc4C3)c3ncnc(N)c23)cc1N [Compound No. 73, 3-(3-amino-4-methoxyphenyl)-1-(2,3-dihydro-1H-inden-2-yl)-1H-pyrazolo[3,4-d]pyrimidin-4-amine]	72.03 % Inh	95.31 % Inh	14.37 % Inh	52.39 % Inh	–	–	30.5 nM	325 nM
COc1ccc(-c2nn(C3Cc4ccccc4C3)c3ncnc(N)c23)cc1OC [Compound No. 35, 1-(2,3-dihydro-1H-inden-2-yl)-3-(3,4-dimethoxyphenyl)-1H-pyrazolo[3,4-d]pyrimidin-4-amine]	29.9 % Inh	–	–	–	–	–	–	–
